Results reported in patent publication US4107309A, “Substituted imidazo[1,2-d]-as-triazines” (American Cyanamid Company, priority 1977, dated 1978).

Key:
[1] = tested on: mouse skin cyclic-AMP phosphodiesterase; assay: mouse skin phosphodiesterase (PDE) inhibition test; format: biochemical; conditions: for Mouse Skin Phosphodiesterase: test compound 10 ug./ml, active if it inhibits more than theophylline (to 50% of control at 1 mM or to 80% of control at 0.05 mM); for phosphodiesterase activity, % of control: reference level used as activity criterion
From the text: The novel compounds of the present invention are active in inhibiting the enzyme cyclic-AMP phosphodiesterase which is responsible for the metabolism of cyclic adenosine monophosphate which is usually simply referred to as cyclic AMP. As such, they are useful in the treatment of psoriasis, a disease in which the epidermal cyclic AMP levels are reported to be decreased. Also as such, they are useful in the treatment of asthma, since elevated levels of cyclic AMP in most cells are reported to inhibit the release of histamine and other mediators and since elevated levels of cyclic AMP in bronchial smooth muscle are reported to cause bronchodilation. See Ann. Reports in Medicinal Chem., Vol. 10, 197 (1975).
The inhibition of phosphodiesterase is determined by the mouse skin phosphodiesterase (PDE) inhibition test as follows:
Hairless mice (Jackson Laboratories), 3-4 months old are killed by cervical dislocation and their skins removed. Epidermal slices are taken at a thickness of 0.2 mm. The slices are weighed and homogenized at 100 mg./ml. in ice-cold tris-HCl buffer (0.04M, pH 8, containing 0.005M MgCl2). Homogenates are centrifuged at 17,000 × gravity for 30 minutes. The supernatants are divided into aliquots which are stored at -20° C. Dilutions of the PDE are made with tris-HCl buffer just prior to use.
AG1-X2®, 200-400 mesh (a polystyrene anionic exchange resin 8% cross linked from Bio-Rad Lab.) is washed with 0.5N HCl, 0.5N NaOH, 0.5N HCl and repeatedly with double distilled water to pH 5. The resin is allowed to settle and 2 volumes of water are added to one volume of settled resin.
^3 H-Cyclic AMP (21 c/m mole, Schwarz-Mann Inc.) is purified by addition of 0.1 to 0.2 ml. of stock (in 50% ethanol) to 5 ml. of anion exchange resin and 0.4 ml. of tris-HCl buffer. The mixture is vortexed, centrifuged at 1200 × gravity for 5 minutes and the supernatant is discarded. The resin is washed in the same manner eight more times with two volumes of tris-HCl buffer. Resin bound ^3 H-cyclic AMP is eluted by two successive washings with 4 ml. of 0.025N HCl (resin pH = 2.0). After centrifugation, the pooled acid washes containing ^3 H-cyclic AMP are aliquoted and lyophilized. The material is stored dry at -20° C. and reconstituted with tris-HCl buffer just prior to use with a volume sufficient to give approximately 200,000 CPM/0.1 ml.
PDE activity is measured by the method of W. J. Thompson and N. N. Appleman, Biochemistry 10, 311 (1971). Assays are conducted in 12 × 75 mm. polypropylene test tubes. The reaction mixture consists of ^3 H-cyclic AMP (200,000 CPM), unlabeled cyclic AMP, PDE (100 ug. protein) and test compounds which are prepared by dissolving the compounds in methanol at a concentration of 10 mg./ml. and then dilution of tris-HCl buffer. Final concentration of the test compounds in the incubation mixture is 10 ug./ml. The total volume of the incubation mixture is increased to 0.4 ml. with tris-HCl buffer containing 3.75 millimoles of 2-mercaptoethanol. The enzyme is incubated for 10 minutes at room temperature in the presence of the test compounds or buffer prior to the addition of the mixture of ^3 H-cyclic AMP and unlabeled cyclic AMP. Reactions are run at 30° C. for 15 minutes and then terminated by immersing in acetone-dry ice until frozen, followed by boiling for 3 minutes. […]

[2] = tested on: mouse passive cutaneous anaphylaxis (IgE and IgG lesions); assay: mouse passive cutaneous anaphylaxis (PCA) test; format: in vivo; conditions: 50 mg./kg intraperitoneally at -1 hour; active if IgE or IgG lesion area significantly smaller than control
Description: Anti-asthma activity was determined by the mouse passive cutaneous anaphylaxis (PCA) test as follows.
Female mice (Charles River Breeding Labs.), weighing 20-22 gm. are inoculated intraperitoneally at approximately three weeks of age with 0.5 ml. of Timothy pollen antigen in complete Freund's adjuvant. The sensitizing antigen is prepared by suspending 60 mg. of Timothy antigen (Phleum pratense) in 6 ml. of Freund's Complete Adjuvant (Difco Labs.). Approximately 3-5 weeks after inoculation, ascitic fluid is removed from responding mice and tested for IgE and IgG type antibody by mouse PCA as follows:
Samples of ascitic fluid are diluted 1:10 and 50 μl are injected intradermally into five mice. The mice are challenged intravenously with antigen and Evans blue dye 48 hours later. Fifteen minutes after challenge, the dorsal skin is removed and examined for blue spots. […]
At -50 hour (relative to antigen challenge at 0 hour) 50 μl of IgE is injected intradermally on the left side of a 25 gm. female mouse, posterior to the axilla at the level of the diaphragm. […] Challenge and reading are performed in serial order so that reading of the assay is essentially blind. […] The largest and smallest diameters of the lesion and a qualitative estimate of intensity of color are recorded. […] IgE and IgG lesions are analyzed independently. […]

| SMILES | Mouse Skin Phosphodiesterase [1] | MOUSE PCA TEST [2] | phosphodiesterase activity, % of control ([1]; 0.05 mM concentration) | phosphodiesterase activity, % of control ([1]; 1 mM concentration) |
| --- | --- | --- | --- | --- |
| CN1CCN(c2nncc3nccn23)CC1 [5-(4-Methyl-1-piperazinyl)-imidazo[1,2-d]-as-triazine] | Active | Accept | – | – |
| c1coc(CNc2nncc3nccn23)c1 [5-(Furfurylamino)-imidazo[1,2-d]-as-triazine] | Active | – | – | – |
| CSc1nncc2nccn12 [5-(Methylthio)-imidazo[1,2-d]-as-triazine] | Active | – | – | – |
| Cn1c(=O)c2[nH]cnc2n(C)c1=O [theophylline, reference compound] | – | – | 80 % of control | 50 % of control |
